This passage reports TGI and GI50 results from PubChem BioAssay (NCI).

Some test systems named below: SW-620 colon; SR leukemia; HCC-2998 colon; LOX IMVI melanoma; SK-MEL-5 melanoma; NCI-H460 lung; NCI-H226 lung; SNB-19 CNS; OVCAR-8 ovarian; ACHN renal; T-47D breast; SF-539 CNS; K-562 leukemia; MDA-MB-231 breast; OVCAR-5 ovarian; RXF 393 renal; HCT-116 colon.
Holding throughout (assay): NCI anticancer screen, dose series, 48 h

The structures appear in SMILES notation. Values joined by “and” are separate entries in the source; they are usually repeats but may differ in a detail not shown here. Equal entries are not always repeated.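 Tested at 5 concentrations; 48 h exposure; 96-well plates; endpoints linearly interpolated, else capped at highest concentration. At the GI50, growth is halved. At the TGI there is no net growth.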 A value given as a limit tells only on which side of the number the result lay.

On to `COc1ccc(/C=C2/SC(c3c(O)ccc4ccccc34)N(NC(=O)CCCCCCCCC(=O)NN3C(=O)/C(=C\c4ccc(OC)c(OC)c4)SC3c3c(O)ccc4ccccc34)C2=O)cc1OC` (stereo unspecified), for which the TGI with SW-620 colon is > 100 µM; in the experiment on SR leukemia it was 1.62 µM; with HCC-2998 colon, > 100 µM; in the experiment on LOX IMVI melanoma, 12.8 µM; in the experiment on SK-MEL-5 melanoma it was 2.29 µM; in the experiment on NCI-H460 lung, > 100 µM. Moreover, the TGI with NCI-H226 lung was 15.9 µM; in the experiment on SNB-19 CNS it was > 91.7 µM; with OVCAR-8 ovarian, 20.2 µM; in the experiment on ACHN renal, > 54.1 µM; in the experiment with T-47D breast, 48.9 µM; in the experiment on SF-539 CNS, 46 µM. The TGI was 17 µM with K-562 leukemia; > 91.7 µM in the experiment with MDA-MB-231 breast; > 100 µM with OVCAR-5 ovarian; > 79.7 µM in the experiment with RXF 393 renal; > 100 µM in the experiment with HCT-116 colon.
Regarding `Brc1ccc(C2CC3(c4ccccc4)ON=C(c4ccccc4)N3c3ccccc3S2)cc1` (stereo unspecified), the TGI in the experiment with SW-620 colon, with SR leukemia, in the experiment on HCC-2998 colon, in the experiment on LOX IMVI melanoma, with SK-MEL-5 melanoma and with NCI-H460 lung was > 100 µM in each case. The TGI with NCI-H226 lung, with SNB-19 CNS, with OVCAR-8 ovarian, in the experiment on ACHN renal, in the experiment on T-47D breast and with SF-539 CNS was > 100 µM throughout. The TGI in the experiment with K-562 leukemia, in the experiment on MDA-MB-231 breast, in the experiment on OVCAR-5 ovarian, in the experiment with RXF 393 renal and with HCT-116 colon was > 100 µM throughout.
For the compound `O=C(N[C@@H](Cc1ccccc1)B(O)O)[C@H](Cc1cccc2ccccc12)NC(=O)N1CCOCC1`, the TGI was 0.0125 µM and 0.0101 µM in the experiment with SW-620 colon; 0.0126 µM with SR leukemia; 0.00339 µM with HCC-2998 colon; 0.00343 µM with LOX IMVI melanoma; 0.00392 µM and 0.014 µM with SK-MEL-5 melanoma; 0.106 µM and 0.0579 µM with NCI-H460 lung. Also, the TGI in the experiment on NCI-H226 lung turned out to be 0.00164 µM; in the experiment on SNB-19 CNS, 0.671 µM; in the experiment on OVCAR-8 ovarian, 0.122 µM; with ACHN renal, 24.6 µM; in the experiment on T-47D breast, 0.00368 µM; with SF-539 CNS it was 0.000769 µM. For the same compound, the TGI with K-562 leukemia is 0.0852 µM; in the experiment on MDA-MB-231 breast, 0.00745 µM and 0.0232 µM; in the experiment on OVCAR-5 ovarian, 0.0155 µM; in the experiment on RXF 393 renal, 0.00379 µM; in the experiment on HCT-116 colon, 0.00208 µM. Also, the GI50 with NCI-H460 lung is 0.0172 µM.
On to `Nc1nc(Cl)c(C=O)c(NCC2(CO)CCC2)n1`, for which the TGI in the experiment with SW-620 colon was > 100 µM; with SR leukemia, 43.8 µM; in the experiment on HCC-2998 colon, 22.9 µM; in the experiment with LOX IMVI melanoma, 26.9 µM; with SK-MEL-5 melanoma, 31.4 µM; with NCI-H460 lung it was > 100 µM. The TGI in the experiment on NCI-H226 lung was 34 µM; with SNB-19 CNS, 34.4 µM; in the experiment on OVCAR-8 ovarian it was 33.8 µM; in the experiment on ACHN renal, > 100 µM; in the experiment on T-47D breast it was > 100 µM; with SF-539 CNS, > 100 µM. The TGI with K-562 leukemia was 31.7 µM; in the experiment on MDA-MB-231 breast it was 81.5 µM; in the experiment on OVCAR-5 ovarian, > 100 µM; with RXF 393 renal, 50.1 µM; with HCT-116 colon it was 40.6 µM.
For `FC(F)(F)C1(c2ccccc2)SCc2nc3ccccc3n21` (stereo unspecified), the TGI in the experiment on SW-620 colon, with SR leukemia, in the experiment on HCC-2998 colon, in the experiment on LOX IMVI melanoma, in the experiment on SK-MEL-5 melanoma and in the experiment on NCI-H460 lung was > 100 µM in each case. Further, the TGI with NCI-H226 lung, in the experiment on SNB-19 CNS, with OVCAR-8 ovarian, in the experiment on ACHN renal, with T-47D breast and with SF-539 CNS was > 100 µM throughout. Moreover, the TGI with K-562 leukemia, in the experiment on MDA-MB-231 breast, in the experiment on OVCAR-5 ovarian, in the experiment on RXF 393 renal and with HCT-116 colon was > 100 µM in each case.
As for `NS(=O)(=O)c1ccc(N2C(=O)C(=O)N(c3ccccc3)C2=S)cc1`, the TGI in the experiment on SW-620 colon, in the experiment on SR leukemia, with HCC-2998 colon, with LOX IMVI melanoma, in the experiment with SK-MEL-5 melanoma and in the experiment on NCI-H460 lung was > 100 µM each time. Moreover, the TGI in the experiment on NCI-H226 lung, in the experiment with SNB-19 CNS, with OVCAR-8 ovarian, in the experiment on ACHN renal, with T-47D breast and in the experiment on SF-539 CNS was > 100 µM throughout. The TGI with K-562 leukemia, with MDA-MB-231 breast, with OVCAR-5 ovarian, in the experiment on RXF 393 renal and in the experiment with HCT-116 colon was > 100 µM throughout.
As for `COC1C(OC(C)=O)CC(=O)OC(C)C/C=C/C=C\C(O)C(C)CC(CC=O)C1OC1OC(C)C(OC2CC(C)(O)C(OC(=O)CC(C)C)C(C)O2)C(N(C)C)C1O` (stereo unspecified), the TGI is > 100 µM with SW-620 colon; 69 µM and 38.7 µM in the experiment on SR leukemia; > 100 µM in the experiment on HCC-2998 colon; > 100 µM with LOX IMVI melanoma; > 100 µM with SK-MEL-5 melanoma; > 100 µM in the experiment with NCI-H460 lung. In addition, the TGI in the experiment on NCI-H226 lung, in the experiment with SNB-19 CNS, in the experiment on OVCAR-8 ovarian, in the experiment on ACHN renal, in the experiment with T-47D breast and in the experiment with SF-539 CNS was > 100 µM throughout. Besides, the TGI in the experiment with K-562 leukemia, in the experiment with MDA-MB-231 breast, with OVCAR-5 ovarian, in the experiment on RXF 393 renal and in the experiment on HCT-116 colon was > 100 µM throughout. In addition, the GI50 with LOX IMVI melanoma is 41.4 µM and > 100 µM.
In the case of `COc1ccc(Br)c(C=Nc2cccc3cc(OC)c(OC)cc23)c1`, the TGI with SW-620 colon was 51.1 µM; in the experiment with SR leukemia, 11.6 µM; with HCC-2998 colon, > 100 µM; with LOX IMVI melanoma, 19.2 µM; with SK-MEL-5 melanoma, > 94.9 µM; in the experiment on NCI-H460 lung it was > 100 µM. In addition, the TGI is > 100 µM in the experiment on NCI-H226 lung; > 100 µM in the experiment on SNB-19 CNS; > 59.9 µM in the experiment on OVCAR-8 ovarian; > 73.8 µM with ACHN renal; > 100 µM in the experiment with T-47D breast; 12.4 µM in the experiment with SF-539 CNS. The TGI was > 39.6 µM with K-562 leukemia; > 46.4 µM with MDA-MB-231 breast; > 100 µM in the experiment with OVCAR-5 ovarian; > 100 µM with RXF 393 renal; 34.2 µM in the experiment on HCT-116 colon.
As to `COc1ccc(C(=O)N(Cc2cccnc2)C(=S)N(Cc2cccnc2)C(=O)c2ccc(OC)cc2)cc1`, the TGI with SW-620 colon, in the experiment on SR leukemia, in the experiment on HCC-2998 colon, in the experiment on LOX IMVI melanoma, in the experiment on SK-MEL-5 melanoma and in the experiment on NCI-H460 lung was > 100 µM each time. Also, the TGI with NCI-H226 lung, in the experiment on SNB-19 CNS, in the experiment on OVCAR-8 ovarian, in the experiment with ACHN renal, in the experiment with T-47D breast and in the experiment with SF-539 CNS was > 100 µM each time. In addition, the TGI with K-562 leukemia, with MDA-MB-231 breast, in the experiment with OVCAR-5 ovarian, in the experiment with RXF 393 renal and with HCT-116 colon was > 100 µM each time.
As for `O=C1CSC(c2cccc(Oc3ccccc3)c2)N1c1cccc(Cl)c1Cl` (stereo unspecified), the TGI was > 100 µM in the experiment on SW-620 colon; 53.8 µM in the experiment on SR leukemia; 26.2 µM in the experiment with HCC-2998 colon; 34.3 µM in the experiment on LOX IMVI melanoma; 50 µM with SK-MEL-5 melanoma; 71.5 µM in the experiment on NCI-H460 lung. Also, the TGI is > 100 µM in the experiment with NCI-H226 lung; > 100 µM in the experiment with SNB-19 CNS; 45.9 µM in the experiment on OVCAR-8 ovarian; 47.9 µM in the experiment on ACHN renal; > 100 µM in the experiment on T-47D breast; 58.3 µM with SF-539 CNS. Besides, the TGI with K-562 leukemia is 63.9 µM; with MDA-MB-231 breast, > 100 µM; in the experiment with OVCAR-5 ovarian, > 100 µM; with RXF 393 renal, > 100 µM; with HCT-116 colon it was 38.5 µM.
Regarding `COc1ccc(S(=O)(=O)Nc2ccc(-c3csc(N4C(=O)/C(=C/c5cccs5)N=C4c4ccccc4)n3)cc2)cc1Cl`, the TGI in the experiment on SW-620 colon, in the experiment on SR leukemia, in the experiment on HCC-2998 colon, in the experiment on LOX IMVI melanoma, in the experiment on SK-MEL-5 melanoma and in the experiment on NCI-H460 lung was > 100 µM throughout. The TGI in the experiment on NCI-H226 lung was > 100 µM; in the experiment with SNB-19 CNS it was > 100 µM; in the experiment on OVCAR-8 ovarian it was > 100 µM; with ACHN renal it was > 100 µM; in the experiment on T-47D breast it was 85 µM; with SF-539 CNS it was > 100 µM. The TGI in the experiment on K-562 leukemia, in the experiment with MDA-MB-231 breast, with OVCAR-5 ovarian, in the experiment on RXF 393 renal and in the experiment with HCT-116 colon was > 100 µM throughout.
Take `COC(=O)[C@]1(Cc2ccc3ccccc3c2)CCCCCCN1C(=O)c1ccccc1`: the TGI was > 60.3 µM in the experiment with SW-620 colon; > 100 µM in the experiment with SR leukemia; > 49 µM in the experiment on HCC-2998 colon; 30.3 µM in the experiment with LOX IMVI melanoma; > 100 µM with SK-MEL-5 melanoma; > 50.2 µM in the experiment with NCI-H460 lung. Also, the TGI is > 52.8 µM with NCI-H226 lung; > 81.8 µM in the experiment on SNB-19 CNS; > 48.5 µM in the experiment on OVCAR-8 ovarian; > 73.2 µM with ACHN renal; > 54.3 µM with T-47D breast; > 54.1 µM with SF-539 CNS. Also, the TGI with K-562 leukemia was > 100 µM; with MDA-MB-231 breast, > 53.5 µM; with OVCAR-5 ovarian, > 65 µM; in the experiment on RXF 393 renal it was > 47.5 µM; in the experiment with HCT-116 colon, > 44.1 µM.
